Source: patent US20120165339A1, “CYCLOPROPANE DERIVATIVES” (EISAI R&D MANAGEMENT CO., LTD., priority 2010, published 2012)
Where two headings read alike, the source gives them in different places.

Tests used:
[1] = molecular target: T1, OX1 (Homo sapiens, UniProt O43613); experiment: Orexin-receptor binding ability, [125I]-OX-A, CHO cell membranes expressing OX1; parameters: expressed in transfected cells; host or cells: CHO cells (membrane preparation); settings: membranes of recombinant CHO cells, 0.2 nM [125I]-OX-A tracer; read-out: OX1 (IC50)
T1 sequence (O43613 1-425): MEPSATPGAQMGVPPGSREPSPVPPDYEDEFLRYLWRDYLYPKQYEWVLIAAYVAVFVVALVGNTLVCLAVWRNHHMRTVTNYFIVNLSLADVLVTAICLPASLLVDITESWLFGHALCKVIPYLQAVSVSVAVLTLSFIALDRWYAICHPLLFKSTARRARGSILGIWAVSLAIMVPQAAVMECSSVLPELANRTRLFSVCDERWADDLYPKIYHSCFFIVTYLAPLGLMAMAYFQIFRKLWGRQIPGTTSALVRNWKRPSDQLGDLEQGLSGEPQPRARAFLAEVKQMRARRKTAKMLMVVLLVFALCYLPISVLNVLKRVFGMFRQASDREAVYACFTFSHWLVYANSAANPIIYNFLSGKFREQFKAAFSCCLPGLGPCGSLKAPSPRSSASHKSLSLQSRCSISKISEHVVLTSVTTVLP
Protocol: (§1) The assay was carried out using a 96-well Wheat Germ Agglutinin Flash Plate (PerkinElmer). The volume in a single assay well was 100 ul, and the composition of the reaction solution was as follows:
(§2) 25 mM HEPES (pH 7.5), 1 mM CaCl2, 4.5 mM MgCl2, 0.5% BSA (bovine serum albumin), 0.1% sodium azide, 0.05% Tween-20, and 0.2% DMSO.
Cell membranes were prepared from recombinant CHO cells that expressed OX2 or OX1. The cell membranes were used in an amount of 5 μg protein/assay. […] Finally, the radioactivity of each well was measured using a scintillation counter (TopCount, PerkinElmer). The obtained results are shown in terms of IC50 values (nM) in the following table.

[2] = molecular target: T2, OX2 (Homo sapiens, UniProt O43614); experiment: Orexin-receptor binding ability, [125I]-OX-A, CHO cell membranes expressing OX2; parameters: expressed in transfected cells; host or cells: CHO cells (membrane preparation)
T2 sequence (O43614 1-444): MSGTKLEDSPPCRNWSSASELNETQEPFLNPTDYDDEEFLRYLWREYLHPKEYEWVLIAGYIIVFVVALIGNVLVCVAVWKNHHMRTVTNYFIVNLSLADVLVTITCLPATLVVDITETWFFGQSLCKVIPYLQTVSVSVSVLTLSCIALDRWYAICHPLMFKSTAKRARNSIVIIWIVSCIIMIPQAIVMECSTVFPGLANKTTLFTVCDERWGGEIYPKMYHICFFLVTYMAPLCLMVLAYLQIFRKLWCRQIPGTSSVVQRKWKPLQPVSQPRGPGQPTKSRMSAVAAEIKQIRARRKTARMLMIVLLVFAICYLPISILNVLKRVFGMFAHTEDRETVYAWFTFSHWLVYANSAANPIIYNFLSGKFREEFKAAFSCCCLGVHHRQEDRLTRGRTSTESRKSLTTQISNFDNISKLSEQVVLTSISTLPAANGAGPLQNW
Protocol: as §1, §2
Cell membranes were prepared from recombinant CHO cells that expressed OX2 or OX1. The cell membranes were used in an amount of 5 μg protein/assay. Test compound in various concentrations, and 0.2 nM [^125I]-OX-A as tracer were added to the cell membranes, and then allowed to react at room temperature for 30 minutes. After completion of the reaction, the reaction solution as a whole was discarded, and the wells were then washed once with 200 ul of wash buffer (25 mM HEPES (pH 7.5), 1 mM CaCl2, 5 mM MgCl2, 0.5% BSA, 0.1% sodium azide, 0.05% Tween-20, and 525 mM sodium chloride). Finally, the radioactivity of each well was measured using a scintillation counter (TopCount, PerkinElmer). The obtained results are shown in terms of IC50 values (nM) in the following table.

[3] = molecular target: T1, OX1; experiment: Antagonism PLAP reporter assay, HEK-293 cells expressing human OX1; type: cell-based; parameters: expressed in transfected cells; host or cells: HEK-293 cell line, expression vector pBabeCLIH; settings: HEK-293, 1 nM human OX-A; IC50 converted to Ki by Cheng-Prusoff equation
Protocol: (§3) The antagonistic function of the compound of the present invention to prevent the activation of OX2 and OX1 by orexin-A (OX-A), which is a natural peptide agonist, was measured using a cell-based reporter assay. A HEK-293 cell line expressing genetically recombinant human OX2 (accession No. NM_001526.3) or a HEK-293 cell line expressing genetically recombinant human OX1 (accession No. NM_001525.2), which had pBabeCLIH as expression vector, was used. The cells were plated at a density of 10,000 cells/well onto a non-coated 96-well plate in Dulbecco's modified Eagle medium (Sigma Cat No. D6046: 10% v/v heat-inactivated fetal bovine serum was contained). The cells were cultured at 37° C. overnight, so that they could adhere to the plate. On the following day, cells were incubated with a compound of the present invention dissolved in Dulbecco's modified Eagle medium (Sigma Cat No. A8806: 0.1% w/v bovine serum albumin was contained), and added to the cell plate to reach a final concentration of 0.1% dimethyl sulfoxide.
(§4) The thus obtained mixture was incubated at room temperature for 1 hour. Thereafter, human OX-A and forskolin were dissolved in the same medium as described above, which contained fetal bovine serum albumin, and the medium was then added to the cells, resulting in a final concentration of 300 nM forskolin. Subsequently, the cells were cultured at 37° C. for approximately 18 to 24 hours. During the culture, as a result of activation of the orexin receptor and subsequent dose-dependent increase in intracellular calcium concentration, a reporter enzyme, placental alkaline phosphatase (PLAP), was expressed under the control of a CRE x4+VIP promoter in a pBabeCLcre4vPdNN vector and secreted into the culture medium supernatant. On the following day, reporter enzyme activity was detected by mixing 5 ul of the culture medium supernatant with 20 ul of detection buffer (containing 1.34 g/L sodium bicarbonate, 1.27 g/L sodium carbonate and 0.2 g/L magnesium sulfate heptahydrate in water) and 25 ul of Lumi-Phos530 reagent (Wako Pure Chemical Industries Ltd.), followed by incubating the obtained mixture light-protected at room temperature for 2 hours, before performing luminescence measurement (ARVO Reader, PerkinElmer). The Kd value of human OX-A with respect to each receptor was measured by titration from 0 to 300 nM. Then, the IC50 value of the compound of the present invention with respect to the activity of 1 nM human OX-A was converted into a Ki value (nM) using the Cheng-Prusoff equation.

[4] = molecular target: T2, OX2; experiment: Antagonism PLAP reporter assay, HEK-293 cells expressing human OX2; type: cell-based; parameters: expressed in transfected cells; host or cells: HEK-293 cell line, expression vector pBabeCLIH; settings: HEK-293, 1 nM human OX-A; IC50 converted to Ki by Cheng-Prusoff equation
Protocol: as §3, §4

[5] = membranes of recombinant CHO cells, 0.2 nM [125I]-OX-A tracer, read-out: OX2 (IC50)

IC50 [1]	IC50 [2, 5]	Ki [3]	Ki [4]	SMILES	IC50 [2]
283 nM	22 nM	699 nM	43 nM	COc1ccc(OCC2(c3ccccc3)CC2C(=O)Nc2cc(C)ccn2)cc1OC (stereo not drawn) [Example 36, N-(4-methylpyridin-2-yl)-2-[(3,4-dimethoxyphenyl)oxymethyl]-2-phenylcyclopropanecarboxamide]	–
403 nM	18 nM	593 nM	14 nM	COc1ccc(OCC2(c3ccccc3)CC2C(=O)Nc2cccc(C)n2)cc1OC (stereo not drawn) [Example 37, N-(6-methylpyridin-2-yl)-2-[(3,4-dimethoxyphenyl)oxymethyl]-2-phenylcyclopropanecarboxamide]	–
1050 nM	36 nM	752 nM	51.5 nM	COc1ccc(OCC2(c3ccccc3)CC2C(=O)Nc2cc(C)ns2)cc1OC (stereo not drawn) [Example 40, N-(3-methylisothiazol-5-yl)-2-[(3,4-dimethoxyphenyl)oxymethyl]-2-phenylcyclopropanecarboxamide]	–
374 nM	35 nM	297 nM	24.8 nM	COc1ccc(OC[C@@]2(c3ccccc3)C[C@H]2C(=O)Nc2ccccn2)cc1OC [Example 41, (1R,2S)—N-(pyridin-2-yl)-2-[(3,4-dimethoxyphenyl)oxymethyl]-2-phenylcyclopropanecarboxamide]	–
61 nM	3 nM	37.5 nM	0.8 nM	CCn1cc(OCC2(c3ccccc3)CC2C(=O)Nc2ccc(Cl)cn2)ccc1=O (stereo not drawn) [Example 54, N-(5-chloropyridin-2-yl)-2-[(1-ethyl-6-oxo-1,6-dihydropyridin-3-yl)oxymethyl]-2-phenylcyclopropanecarboxamide]	–
467 nM	45 nM	> 467 nM	20.9 nM	CCn1nc(C)cc1OCC1(c2ccccc2)CC1C(=O)Nc1ccc(F)cn1 (stereo not drawn) [Example 58]	–
520 nM	70 nM	275 nM	32.9 nM	Cc1noc2cc(OCC3(c4ccccc4)CC3C(=O)Nc3ccc(C#N)cn3)ccc12 (stereo not drawn) [Example 61]	–
44 nM	61 nM	481 nM	30.2 nM	Cc1ccc(OCC2(c3ccccc3)CC2C(=O)Nc2ccc(Cl)cn2)c(C)n1 (stereo not drawn) [Example 62]	–
163 nM	33 nM	> 467 nM	78 nM	CCn1cc(OCC2(c3ccccc3)CC2C(=O)Nc2ccc(Cl)cn2)cn1 (stereo not drawn) [Example 81]	–
944 nM	49 nM	> 467 nM	62.7 nM	CCc1nc(Cl)cn1CCC1(c2ccccc2)CC1C(=O)Nc1ccc(F)cn1 (stereo not drawn) [Example 113]	–
868 nM	49 nM	> 467 nM	210 nM	CCc1nc(Cl)cn1CCC1(c2ccccc2)CC1C(=O)Nc1ccc(C#N)cn1 (stereo not drawn) [Example 114]	–

Further lines, the compound ahead of its results:

SMILES	IC50 [1]	IC50 [2, 5]	Ki [3]	Ki [4]	IC50 [2]
COc1ccc(OCC2(c3ccccc3)CC2C(=O)Nc2ccccc2-c2nnc[nH]2)cc1OC (stereo not drawn) [Example 35, N-[2-(1H-1,2,4-triazol-3-yl)phenyl]-2-[(3,4-dimethoxyphenyl)oxymethyl]-2-phenylcyclopropanecarboxamide]	2040 nM	47 nM	1900 nM	122 nM	–
CCn1cc(OCC2(c3ccccc3)CC2C(=O)Nc2ccc(C#N)cn2)ccc1=O (stereo not drawn) [Example 55]	675 nM	33 nM	> 467 nM	43.6 nM	–
CCn1nc(C)cc1OCC1(c2ccccc2)CC1C(=O)Nc1ccc(Cl)cn1 (stereo not drawn) [Example 57]	483 nM	46 nM	> 467 nM	31.7 nM	–
CCn1nc(C)c(Cl)c1OCC1(c2ccccc2)CC1C(=O)Nc1ccc(F)cn1 (stereo not drawn) [Example 74]	359 nM	30 nM	> 467 nM	30.7 nM	–
CCn1nc(C)c(Cl)c1OCC1(c2ccccc2)CC1C(=O)Nc1ccc(Cl)cn1 (stereo not drawn) [Example 75]	477 nM	26 nM	> 816 nM	30.8 nM	–
COc1cc(F)c(OCC2(c3ccccc3)CC2C(=O)Nc2ccccn2)cc1OC (stereo not drawn) [Example 78]	212 nM	–	342 nM	19.2 nM	20 nM
CCn1cc(OCC2(c3ccccc3)CC2C(=O)Nc2ccc(F)cn2)c(C)n1 (stereo not drawn) [Example 79, N-(5-fluoropyridin-2-yl)-2-[(1-ethyl-3-methyl-1H-pyrazol-4-yl)oxymethyl]-2-phenylcyclopropanecarboxamide]	213 nM	54 nM	275 nM	10.5 nM	–
CCn1cc(OCC2(c3ccccc3)CC2C(=O)Nc2ccc(C#N)cn2)cn1 (stereo not drawn) [Example 80]	359 nM	54 nM	> 467 nM	190 nM	–
COc1ccc(CCC2(c3ccccc3)CC2C(=O)Nc2ccccn2)cc1OC (stereo not drawn) [Example 99, N-(pyridin-2-yl)-2-[2-(3,4-dimethoxyphenyl)ethyl]-2-phenylcyclopropanecarboxamide]	632 nM	43 nM	> 816 nM	154 nM	–
CCc1nc(C)c(CC[C@@]2(c3ccccc3)C[C@H]2C(=O)Nc2ccc(C#N)cn2)s1 [Example 100, (1R,2R)—N-(5-cyanopyridin-2-yl)-2-[2-(2-ethyl-4-methyl-1,3-thiazol-5-yl)ethyl]-2-phenylcyclopropanecarboxamide]	58 nM	9 nM	47.5 nM	5.2 nM	–
